Source: paper PMC11995724, “Antibiotic target discovery by integrated phenotypic and activity-based profiling of electrophilic fragments” (Cell chemical biology, 2025)

Experiment: in vitro
Conditions: human, hek293t cells

Compound: CCc1nsc(N2CCCN(C(=O)C(C)Cl)CC2)n1 (stereo not drawn) [7-B15, 2-chloro-1-[4-(3-ethyl-1,2,4-thiadiazol-5-yl)-1,4-diazepan-1-yl]propan-1-one]
- viability at 48 h, 25 µM: 84.3%

Compound: O=C(CCl)N(Cc1nc(C2CCCCCC2)no1)C1CC1 [7-B16, 2-chloro-N-[(3-cycloheptyl-1,2,4-oxadiazol-5-yl)methyl]-N-cyclopropylacetamide]
- viability at 48 h, 25 µM: 0.667%

Compound: CC(Cl)C(=O)N1CCOCC1c1nc(-c2cccs2)no1 (stereo not drawn) [7-B17, 2-chloro-1-{3-[3-(thiophen-2-yl)-1,2,4-oxadiazol-5-yl]morpholin-4-yl}propan-1-one]
- viability at 48 h, 25 µM: 75.7%

Compound: C=C(Cl)CN(C(=O)CCl)C1CCc2ccccc21 (stereo not drawn) [7-B18, 2-chloro-N-(2-chloroprop-2-en-1-yl)-N-(2,3-dihydro-1H-inden-1-yl)acetamide]
- viability at 48 h, 25 µM: 0.322%

Compound: CC(Cl)C(=O)NC(C)c1nc(Cc2ccccc2)no1 (stereo not drawn) [7-B19, N-[1-(3-benzyl-1,2,4-oxadiazol-5-yl)ethyl]-2-chloropropanamide]
- viability at 48 h, 25 µM: 79.9%

Compound: Cc1cc(CN(C(=O)CCl)C2CCCC2)c2ccccc2n1 [7-B20, 2-chloro-N-cyclopentyl-N-[(2-methylquinolin-4-yl)methyl]acetamide]
- viability at 48 h, 25 µM: 0.493%

Compound: CC(Cl)C(=O)N(C)Cc1cc(C(C)(C)C)[nH]n1 (stereo not drawn) [7-B21, N-[(5-tert-butyl-1H-pyrazol-3-yl)methyl]-2-chloro-N-methylpropanamide]
- viability at 48 h, 25 µM: 80.5%

Compound: O=C(CCl)NC(c1ccc(F)c(C(F)(F)F)c1)C1CC1 (stereo not drawn) [7-B22, 2-chloro-N-{cyclopropyl[4-fluoro-3-(trifluoromethyl)phenyl]methyl}acetamide]
- viability at 48 h, 25 µM: 0.631%

Compound: CC(Cl)C(=O)NCC1CN(S(C)(=O)=O)C1 (stereo not drawn) [7-C04, 2-chloro-N-[(1-methanesulfonylazetidin-3-yl)methyl]propanamide]
- viability at 48 h, 25 µM: 118%

Compound: CC(Cl)C(=O)N1CCCCCC1c1noc(-c2cnn(C)c2)n1 (stereo not drawn) [7-C05, 2-chloro-1-{2-[5-(1-methyl-1H-pyrazol-4-yl)-1,2,4-oxadiazol-3-yl]azepan-1-yl}propan-1-one]
- viability at 48 h, 25 µM: 92.8%

Compound: CC(Cl)C(=O)N1CCc2ncsc2C1 (stereo not drawn) [7-C06, 2-chloro-1-{4H,5H,6H,7H-[1,3]thiazolo[5,4-c]pyridin-5-yl}propan-1-one]
- viability at 48 h, 25 µM: 92.6%

Compound: CC(Cl)C(=O)N1CCC(N(CC(F)(F)F)S(C)(=O)=O)CC1 (stereo not drawn) [7-C07, N-[1-(2-chloropropanoyl)piperidin-4-yl]-N-(2,2,2-trifluoroethyl)methanesulfonamide]
- viability at 48 h, 25 µM: 94.8%

Compound: CC(Cl)C(=O)N1CCOCC1c1ncnn1Cc1ccccc1 (stereo not drawn) [7-C08, 1-[3-(1-benzyl-1H-1,2,4-triazol-5-yl)morpholin-4-yl]-2-chloropropan-1-one]
- viability at 48 h, 25 µM: 95.7%

Compound: CC(Cl)C(=O)N1C2C=C(c3ccccc3)CC1CC2 (stereo not drawn) [7-C09, 2-chloro-1-{3-phenyl-8-azabicyclo[3.2.1]oct-2-en-8-yl}propan-1-one]
- viability at 48 h, 25 µM: 81.3%

Compound: CC(Cl)C(=O)N(C)Cc1ncnn1CC(F)F (stereo not drawn) [7-C10, 2-chloro-N-{[1-(2,2-difluoroethyl)-1H-1,2,4-triazol-5-yl]methyl}-N-methylpropanamide]
- viability at 48 h, 25 µM: 97.8%

Compound: CC(Cl)C(=O)NCc1csc2ccccc12 (stereo not drawn) [7-C11, N-[(1-benzothiophen-3-yl)methyl]-2-chloropropanamide]
- viability at 48 h, 25 µM: 81.9%

Compound: CC(Cl)C(=O)NCCc1c[nH]c2ncccc12 (stereo not drawn) [7-C12, 2-chloro-N-(2-{1H-pyrrolo[2,3-b]pyridin-3-yl}ethyl)propanamide]
- viability at 48 h, 25 µM: 88.4%

Compound: CC(Cl)C(=O)N1CCCC(NS(=O)(=O)c2cccc(F)c2)C1 (stereo not drawn) [7-C13, N-[1-(2-chloropropanoyl)piperidin-3-yl]-3-fluorobenzene-1-sulfonamide]
- viability at 48 h, 25 µM: 79.3%

Compound: COc1ccc(N(C)C(=O)C(C)Cl)cc1Cl (stereo not drawn) [7-C14, 2-chloro-N-(3-chloro-4-methoxyphenyl)-N-methylpropanamide]
- viability at 48 h, 25 µM: 80.4%

Compound: CC(Cl)C(=O)N1CCCc2ccc(N(C)C)cc2C1 (stereo not drawn) [7-C15, 2-chloro-1-[8-(dimethylamino)-2,3,4,5-tetrahydro-1H-2-benzazepin-2-yl]propan-1-one]
- viability at 48 h, 25 µM: 82.1%

Compound: CC(Cl)C(=O)N(C)C1CCN(c2ccccc2Cl)C1=O (stereo not drawn) [7-C16, 2-chloro-N-[1-(2-chlorophenyl)-2-oxopyrrolidin-3-yl]-N-methylpropanamide]
- viability at 48 h, 25 µM: 77.8%

Compound: CC(Cl)C(=O)NC1CCN(c2ccccc2C(F)(F)F)C1 (stereo not drawn) [7-C17, 2-chloro-N-{1-[2-(trifluoromethyl)phenyl]pyrrolidin-3-yl}propanamide]
- viability at 48 h, 25 µM: 67.5%

Compound: Cc1ncccc1OCC1CCCN1C(=O)C(C)Cl (stereo not drawn) [7-C18, 2-chloro-1-(2-{[(2-methylpyridin-3-yl)oxy]methyl}pyrrolidin-1-yl)propan-1-one]
- viability at 48 h, 25 µM: 76.6%

Compound: CC(Cl)C(=O)NC(c1ccc(F)cc1)c1cnn(C)c1 (stereo not drawn) [7-C19, 2-chloro-N-[(4-fluorophenyl)(1-methyl-1H-pyrazol-4-yl)methyl]propanamide]
- viability at 48 h, 25 µM: 93.1%

Compound: CCc1cnc(N2CCN(C(=O)C(C)Cl)CC2)s1 (stereo not drawn) [7-C20, 2-chloro-1-[4-(5-ethyl-1,3-thiazol-2-yl)piperazin-1-yl]propan-1-one]
- viability at 48 h, 25 µM: 79.5%

Compound: CC(Cl)C(=O)NC1CCCN(c2ncccn2)C1 (stereo not drawn) [7-C21, 2-chloro-N-[1-(pyrimidin-2-yl)piperidin-3-yl]propanamide]
- viability at 48 h, 25 µM: 93.1%

Compound: CC(Cl)C(=O)N1CCN(CC(F)(F)F)CC1C(C)C (stereo not drawn) [7-C22, 2-chloro-1-[2-(propan-2-yl)-4-(2,2,2-trifluoroethyl)piperazin-1-yl]propan-1-one]
- viability at 48 h, 25 µM: 91.5%

Compound: CCC(NC(=O)CCl)c1c(C)noc1C (stereo not drawn) [7-D03, 2-chloro-N-[1-(3,5-dimethyl-1,2-oxazol-4-yl)propyl]acetamide]
- viability at 48 h, 25 µM: 104%

Compound: CN1C(=O)[C@H](NC(=O)CCl)COc2ccccc21 [7-D04, 2-chloro-N-[(3R)-5-methyl-4-oxo-2,3,4,5-tetrahydro-1,5-benzoxazepin-3-yl]acetamide]
- viability at 48 h, 25 µM: 2.02%

Compound: O=C(CCl)NCc1cn[nH]c1C(F)F [7-D05, 2-chloro-N-{[5-(difluoromethyl)-1H-pyrazol-4-yl]methyl}acetamide]
- viability at 48 h, 25 µM: 0.404%

Compound: N#Cc1cccc2c1CC[C@H]2NC(=O)CCl [7-D06, 2-chloro-N-[(1R)-4-cyano-2,3-dihydro-1H-inden-1-yl]acetamide]
- viability at 48 h, 25 µM: 0.673%

Compound: CC(Cl)C(=O)NC1CCN(Cc2cscn2)CC1 (stereo not drawn) [7-D07, 2-chloro-N-{1-[(1,3-thiazol-4-yl)methyl]piperidin-4-yl}propanamide]
- viability at 48 h, 25 µM: 111%

Compound: CCC(NC(=O)CCl)c1cccc(OC)n1 (stereo not drawn) [7-D08, 2-chloro-N-[1-(6-methoxypyridin-2-yl)propyl]acetamide]
- viability at 48 h, 25 µM: 1.69%

Compound: CC(Cl)C(=O)NCCc1nnc2n1CCCCC2 (stereo not drawn) [7-D09, 2-chloro-N-(2-{5H,6H,7H,8H,9H-[1,2,4]triazolo[4,3-a]azepin-3-yl}ethyl)propanamide]
- viability at 48 h, 25 µM: 101%

Compound: COC1(OC)CCOCC1NC(=O)CCl (stereo not drawn) [7-D10, 2-chloro-N-(4,4-dimethoxyoxan-3-yl)acetamide]
- viability at 48 h, 25 µM: 19.1%

Compound: Cc1nnc(C(C)NC(=O)C(C)Cl)s1 (stereo not drawn) [7-D11, 2-chloro-N-[1-(5-methyl-1,3,4-thiadiazol-2-yl)ethyl]propanamide]
- viability at 48 h, 25 µM: 104%

Compound: O=C(CCl)N[C@H]1C[C@H](c2ccccc2)C1 [7-D12, 2-chloro-N-[(1r,3r)-3-phenylcyclobutyl]acetamide]
- viability at 48 h, 25 µM: 0.742%

Compound: CC(Cl)C(=O)N1CCN(c2oc(-c3ccco3)nc2C#N)CC1 (stereo not drawn) [7-D13, 5-[4-(2-chloropropanoyl)piperazin-1-yl]-2-(furan-2-yl)-1,3-oxazole-4-carbonitrile]
- viability at 48 h, 25 µM: 85%

Compound: CSc1ccccc1CC(C)NC(=O)CCl (stereo not drawn) [7-D14, 2-chloro-N-{1-[2-(methylsulfanyl)phenyl]propan-2-yl}acetamide]
- viability at 48 h, 25 µM: 1.59%

Compound: CC(Cl)C(=O)N1CCCCC1c1nc(-c2ncccn2)no1 (stereo not drawn) [7-D15, 2-chloro-1-{2-[3-(pyrimidin-2-yl)-1,2,4-oxadiazol-5-yl]piperidin-1-yl}propan-1-one]
- viability at 48 h, 25 µM: 85.8%

Compound: O=C(CCl)NC(c1ccc(F)c(Cl)c1)C(F)(F)F (stereo not drawn) [7-D16, 2-chloro-N-[1-(3-chloro-4-fluorophenyl)-2,2,2-trifluoroethyl]acetamide]
- viability at 48 h, 25 µM: 0.544%

Compound: CC(Cl)C(=O)N1CCn2c(cc3c(Cl)cccc32)C1 (stereo not drawn) [7-D17, 2-chloro-1-{9-chloro-1H,2H,3H,4H-pyrazino[1,2-a]indol-2-yl}propan-1-one]
- viability at 48 h, 25 µM: 55.6%

Compound: O=C(CN(CC1CCCO1)C(=O)CCl)N1CCCC1 (stereo not drawn) [7-D18, 2-chloro-N-[2-oxo-2-(pyrrolidin-1-yl)ethyl]-N-[(oxolan-2-yl)methyl]acetamide]
- viability at 48 h, 25 µM: 99.8%

Compound: Cc1cc(C2CCCN2C(=O)C(C)Cl)no1 (stereo not drawn) [7-D19, 2-chloro-1-[2-(5-methyl-1,2-oxazol-3-yl)pyrrolidin-1-yl]propan-1-one]
- viability at 48 h, 25 µM: 88.5%

Compound: CC(NC(=O)CCl)C(c1ccccc1Cl)n1cccn1 (stereo not drawn) [7-D20, 2-chloro-N-[1-(2-chlorophenyl)-1-(1H-pyrazol-1-yl)propan-2-yl]acetamide]
- viability at 48 h, 25 µM: 1.01%

Compound: CC(Cl)C(=O)NCc1ccc2cnn(C)c2c1 (stereo not drawn) [7-D21, 2-chloro-N-[(1-methyl-1H-indazol-6-yl)methyl]propanamide]
- viability at 48 h, 25 µM: 87.7%

Compound: O=C(CCl)NCc1ccc(Cl)c(C(F)(F)F)c1 [7-D22, 2-chloro-N-{[4-chloro-3-(trifluoromethyl)phenyl]methyl}acetamide]
- viability at 48 h, 25 µM: 0.676%

Compound: CC(Cl)C(=O)NCCc1nnc(C(C)C)s1 (stereo not drawn) [7-E03, 2-chloro-N-{2-[5-(propan-2-yl)-1,3,4-thiadiazol-2-yl]ethyl}propanamide]
- viability at 48 h, 25 µM: 123%

Compound: COc1ccc2c(c1)OCCN(C(=O)C(C)Cl)C2 (stereo not drawn) [7-E04, 2-chloro-1-(8-methoxy-2,3,4,5-tetrahydro-1,4-benzoxazepin-4-yl)propan-1-one]
- viability at 48 h, 25 µM: 122%

Compound: CC(Cl)C(=O)N(Cc1nc(C2CCCCCC2)no1)C1CC1 (stereo not drawn) [7-E05, 2-chloro-N-[(3-cycloheptyl-1,2,4-oxadiazol-5-yl)methyl]-N-cyclopropylpropanamide]
- viability at 48 h, 25 µM: 78.1%

Compound: CC(Cl)C(=O)NC1CCc2ccccc2-n2ccnc21 (stereo not drawn) [7-E06, 2-chloro-N-{2,5-diazatricyclo[8.4.0.0,2,6]tetradeca-1(14),3,5,10,12-pentaen-7-yl}propanamide]
- viability at 48 h, 25 µM: 88.2%
